Measured values reported in patent US7186354B2, “Anticorrosive treating concentrate” (NEC Electronics Corporation, priority 2000, dated 2007).

Assay: solubility of BTA in water (FIG. 1)
Assay type: physicochemical

c1ccc2[nH]nnc2c1 [BTA, benzotriazole]
solubility of BTA in water (10° C.): about 1% | solubility of BTA in water (20° C.): about 1.9% | solubility of BTA in water (30° C.): about 4% | solubility of BTA in water (80° C.): about 8% | solubility in water (water of 20° C.): about 1.9 wt-%
